These are literature values, as cited in patent US6919088B2 (priority 2002, dated 2005).

For data set [1], the system named is arachadonic acid in tissue lipids. The settings on record: rats, dietary triacylglycerols.
The subject of data set [2] is decorin and procollagen-I. The settings on record: in vitro testing compared to retinoic acid.

As for `CCCCCCCCCCC/C=C\CCCCC(=O)O` [petroselinic acid, cis-6-octadecenoic acid], the “levels of arachadonic acid in tissue lipids” value in data set [1] is given as “reduce the levels of arachadonic acid”. For the same molecule, the “upregulating and increasing synthesis of decorin and procollagen-I” value in data set [2] is “more effective than retinoic acid”.
